# Patent publication US20220364065A1, “COMPOSITION FOR REMOVING PLURIPOTENT STEM CELLS AND METHOD OF REMOVING PLURIPOTENT STEM CELLS” (NATIONAL UNIVERSITY CORPORATION HOKKAIDO UNIVERSITY, priority 2018, published 2022)
# “Also recorded” adds a separate entry of the source.
# Key:
# [1] = Side effects in treated tumor-bearing mice; assay type: in vivo; conditions: NOD/SCID mice, BRQ intraperitoneally
# [2] = test system: mouse neural stem cells (mNSC); test: MTT assay, viability of mouse neural stem cells; assay type: cell-based; conditions: 10 μM BRQ, 3 days
# Method: (§1) One thousand cells were seeded into each well of a 96-well plate and cultured for 3 days in medium (200 μL/well) supplemented with only DMSO at a final concentration of 0.1% or in medium (200 μL/well) supplemented with each dihydroorotate dehydrogenase (DHODH) inhibitor. The medium used was the appropriate culture solution for each cell as described above.
# (§2) The concentration of each DHODH inhibitor added to the medium was a 2-fold dilution series starting from 200 μM.
# (§3) As a background, a well containing medium only was prepared, and as a control, a well was also prepared in which medium containing Triton X-100 (final concentration 0.2%) was added to the cells.
# (§4) Then, 5 μL of MTT (5 mg/ml, manufactured by Wako) was added to each well, and the cells were incubated at 37° C. for 2 to 3 hours. Then, the medium was replaced with 100 μL of DMSO to lyse the cells, and the absorbance of these cell lysates at a wavelength of 570 nm was measured with a microplate reader (manufactured by Bio-Rad, Benchmark model). In addition, based on the obtained absorbance, the cell viability was calculated by the following formula.
# Cell viability (%)=(absorbance in wells with DHODH inhibitor-absorbance in background)/(absorbance in control-absorbance in background)×100.
# [3] = test system: PA6: mouse bone marrow-derived stromal cells; test: MTT assay, viability of PA6 cells; assay type: cell-based; conditions: 10 μM BRQ, 3 days
# Method: as §1, §2, §3, §4
# (§5) Cell viability (%)=(absorbance in wells with DHODH inhibitor-absorbance in background)/(absorbance in control-absorbance in background)×100. […]
# [4] = test system: mouse iPS cells; test: Cell proliferation and cell death (BrdU uptake, Ki67, Casp3 immunostaining), iPS cells; assay type: cell-based; conditions: BRQ 2 days
# Method: (§6) The cells were fixed and immunostained as described in Kondo et al., Genes Dev. 2004, Vol. 18, Issue 23, pp. 2963-72. […] For the culture of mNSCs, PDL+fibronectin-coated ones were used (see Johe KK et al., Genes Dev. 1996, Vol. 10, Issue 24, pp. 3129 to 3140). For the culture of ES cells and iPS cells, gelatin-coated ones were used.
# (§7) For immunostaining, the cells were first washed once with PBS, then fixed by adding 4% paraformaldehyde and incubating for 10 minutes at room temperature. The cells were replaced with PBS containing 0.3% Triton X100 and incubated for 5 minutes at room temperature, then replaced with PBS containing 0.3% Triton X100 and 10% FCS (blocking solution) and incubated for 30 minutes at room temperature. The solution was replaced with primary antibody solution diluted in blocking solution and incubated for 2 hours at room temperature. After washing three times with PBS, secondary antibody and DAPI solution diluted with blocking solution were added and incubated at room temperature for 2 hours. After washing three times with PBS, the cells were sealed with anti-fading agent (manufactured by DAKO, code number: 53023) and observed under a microscope. […] In addition, fluorescence images were acquired with an Axiolmager M1 microscope (manufactured by Carl Zeiss). […]
# [5] = test system: teratomas formed from mouse ES cells; test: Anti-teratoma activity in NOD/SCID mice, ES cell-derived tumors; assay type: in vivo
# Method: (§8) For tumors, 10-μm-thick sections were prepared and immunostained using the methods described by Kondo T. and Raff M., EMBO J. 2000; 19(9): 1998-2007, and Takanaga H, et al., Stem Cells. 2009; 27(1): 165-174. The following antibodies were used for this immunostaining.
# (§9) TOCRIS) PBS solution was administered daily intraperitoneally to mice bearing subcutaneous tumors. Five days after intraperitoneal administration, the mice were sacrificed to death, and the tumors were removed and photographed for pathological analysis according to the method described in Tsukamoto Y, et al., Stem Cells. 2016; 34(8): 2016-2025.
# (§10) Next, sections of these tumors were prepared, immunolabeled for the proliferation marker Ki67, pluripotent stem cell markers (Oct4 and Nanog), and differentiation markers (ATF, βIII tubulin, and SMA), and observed.
# [6] = test system: mouse neural stem cells and mouse iPS cells; test: Mixed culture of neural stem cells and iPS cells, Nestin/Nanog immunostaining; assay type: cell-based; conditions: 10 μM BRQ, 3 days
# Method: as §6
# For immunostaining, the cells were first washed once with PBS, then fixed by adding 4% paraformaldehyde and incubating for 10 minutes at room temperature. The cells were replaced with PBS containing 0.3% Triton X100 and incubated for 5 minutes at room temperature, then replaced with PBS containing 0.3% Triton X100 and 10% FCS (blocking solution) and incubated for 30 minutes at room temperature. The solution was replaced with primary antibody solution diluted in blocking solution and incubated for 2 hours at room temperature. After washing three times with PBS, secondary antibody and DAPI solution diluted with blocking solution were added and incubated at room temperature for 2 hours. After washing three times with PBS, the cells were sealed with anti-fading agent (manufactured by DAKO, code number: 53023) and observed under a microscope. […] In addition, fluorescence images were acquired with an Axiolmager M1 microscope (manufactured by Carl Zeiss).
# The cells were then analyzed by immunostaining as described above.
# [7] = test system: C2C12: mouse myoblasts; test: MTT assay, viability of C2C12 cells; assay type: cell-based; conditions: 10 μM BRQ, 3 days
# Method: as §1, §2, §3, §4, §5
# [8] = test system: mouse neural stem cells; test: Sox2 immunostaining, neural stem cells; assay type: cell-based; conditions: 10 μM BRQ, 24 hours
# Method: as §6, §7
# [9] = test system: teratomas formed from mouse iPS cells; test: Anti-teratoma activity in NOD/SCID mice, iPS cell-derived tumors; assay type: in vivo
# Method: as §8, §9, §10
# [10] = test system: mouse ES cells; test: Teratoma formation from pretreated ES cells in NOD/SCID mice; assay type: in vivo; conditions: ES cells pretreated 2 days with 10 μM BRQ, subcutaneous in NOD/SCID mice, 4 weeks
# Method: The viable cells (1×10^6) were suspended in 50 μl of Matrigel (manufactured by BD Biosciences) and injected subcutaneously into the buttocks of 5-8-week-old NOD/SCID mice anesthetized with 10% pentobarbital. Four weeks after the injection, the mice were sacrificed to death, and the tumors were removed and photographed for their size measurement according to the method described in Tsukamoto Y, et al., Stem Cells. 2016; 34(8): 2016-2025. Based on the measurement values obtained, the volume of the tumors was calculated by the following formula.
# Volume of tumor (cm^3)=major diameterxminor diameterxminor diameter×½.
# Then, 4 weeks after transplantation, the tumors were removed and observed.
smiles,measurement,setting,value
"Cc1c(-c2ccc(-c3ccccc3F)cc2)nc2ccc(F)cc2c1C(=O)O [BRQ, 6-fluoro-2-(2′-fluoro-1,1′-biphenyl-4-yl)-3-methyl-4-quinoline-sodium carboxylate]",side effects in treated mice,[1],no visible side effects
same,"cytotoxic activity / sensitivity (viability, MTT assay)",[2],hyposensitive; also recorded: no significant cytotoxic activity
same,"cytotoxic activity (viability, MTT assay)",[3],no significant cytotoxic activity
same,CASP3 activation (Casp3 immunostaining),[4],strongly activated
same,cell proliferation (BrdU uptake assay),[4],reduced the proliferation
same,number of Oct4-positive cells and Nanog-positive cells in tumors,[5]; ES cell-derived tumors,significantly decreased
same,tumor proliferation,"[5]; ES cell-derived tumors, BRQ intraperitoneally",suppressed
same,"cells expressing differentiation markers (ATF, βIII tubulin, SMA) in tumors","[5]; ES cell-derived tumors, BRQ- vs DMSO-treated",similarly contained in both tumors
same,Ki67-positive proliferating cells in tumors,"[5]; ES cell-derived tumors, compared to DMSO-treated tumors",significantly reduced
same,sizes of teratomas,"[5]; ES cell-derived, BRQ intraperitoneally (DMSO control 0.55 cm^3)",0.12 cm^3
same,iPS cells (Nanog) in mixed culture,[6]; ES cell medium,lost
same,cytotoxicity to neural stem cells (Nestin) in mixed culture,[6]; mixed with iPS cells,no obvious cytotoxicity
same,"cytotoxic activity (viability, MTT assay)",[7],no significant cytotoxic activity
same,changes in proliferation/death and Sox2 expression,[8],no similar changes were observed
same,number of Oct4-positive cells and Nanog-positive cells in tumors,[9]; iPS cell-derived tumors,significantly decreased
same,tumor proliferation,"[9]; iPS cell-derived tumors, BRQ intraperitoneally",suppressed
same,"cells expressing differentiation markers (ATF, βIII tubulin, SMA) in tumors","[9]; iPS cell-derived tumors, BRQ- vs DMSO-treated",similarly contained in both tumors
same,Ki67-positive proliferating cells in tumors,"[9]; iPS cell-derived tumors, compared to DMSO-treated tumors",significantly reduced
same,sizes of teratomas,"[9]; iPS cell-derived, BRQ intraperitoneally (DMSO control 1.37 cm^3)",0.32 cm^3
same,tumor formation from pretreated cells,[10],did not proliferate
